Results on two compounds are retold here after patent US20160151318A1, “USE OF NITRATED LIPIDS FOR TREATMENT OF LIPID DISORDERS AND OBESITY, AND LIPID- AND OBESITY-RELATED CONDITIONS” (THE UNIVERSITY OF UTAH RESEARCH FOUNDATION, priority 2008, published 2016).

Experiment [1] has as its system Zucker obese rats. Kind of experiment: Chronic infusion of OA-NO2 or OA in Zucker obese rats (obesity, hyperlipidemia, kidney injury). Conditions: 7.5 μg/kg/day via osmotic mini-pump; for reduction of proteinuria (urinary protein excretion): 24-hour urine (FIG. 7); for plasma free fatty acid levels (non-esterified fatty acid): fasted (FIG. 3B); for plasma cholesterol levels: fasted (FIG. 4); for plasma HDL levels: fasted (FIG. 5A); for body weight gain: male 4-mo-old Zucker obese rats, vs. vehicle control (FIG. 1). The class given is in vivo, rat. On the procedure: Male 4-month-old Zucker obese and Zucker diabetic rats were from Charles River Laboratory (Wilmington, Mass.). All animals were housed in an air-conditioned room with a 12-hour light/dark cycle. All procedures and protocols were in accordance with guidelines set by the Laboratory Animal Care Committee at the University of Utah. Two strains of Zucker rats, obese and diabetes (ZDF) (Charles River), were treated with vehicle (ethanol), OA-NO2 at 7.5 μg/kg/d, or OA at 7.5 μg/kg/d via an osmotic mini-pump. Under isoflurane anesthesia, the mini-pump was implanted under the skin of the neck area. Body weight, food intake, and collections of blood and urine samples were determined before and after treatment. Animals were fasted from 6:00 pm to 9:00 am before blood sampling. Blood sampling was conducted by making a small cut (˜2 mm) in the tail using razor blade. 24-hour urine was collected using metabolic cages. Adult Zucker obese rats develop severe obesity and hyperlipidemia but are relatively resistant to diabetes. Therefore, these animals were used for testing the weight-loss and lipid lowering effects of OA-NO2. To determine whether these effects are directly attributable to the nitration of the fatty acid, the parent fatty acid (OA) was used as a control. Starting from 4 mo of age, Zucker obese rats were chronically infused for 2 weeks with vehicle, OA-NO2 (9-nitrooleic acid and 10-nitrooleic acid are purchased from Cayman Chemical, Ann Arbor, MI and used as an 1:1 mixture), or OA each at 7.5 μg/kg/day via an osmotic mini-pump. Parameters including body weight, food intake, the lipid profile, oxidative stress, and urinary protein excretion were determined. Animals were fasted from 6:00 pm to 9:00 am before blood sampling.

The test system of experiment [2] is Zucker diabetic rats. Kind of experiment: Chronic infusion of OA-NO2 in Zucker diabetic rats (ZDF strain). The class given is in vivo, rat. Conditions: 7.5 μg/kg/d via osmotic mini-pumps, 1 week, fasted. On the procedure:
Male 4-month-old Zucker obese and Zucker diabetic rats were from Charles River Laboratory (Wilmington, Mass.). All animals were housed in an air-conditioned room with a 12-hour light/dark cycle. All procedures and protocols were in accordance with guidelines set by the Laboratory Animal Care Committee at the University of Utah.
Two strains of Zucker rats, obese and diabetes (ZDF) (Charles River), were treated with vehicle (ethanol), OA-NO2 at 7.5 μg/kg/d, or OA at 7.5 μg/kg/d via an osmotic mini-pump. Under isoflurane anesthesia, the mini-pump was implanted under the skin of the neck area. Body weight, food intake, and collections of blood and urine samples were determined before and after treatment. Animals were fasted from 6:00 pm to 9:00 am before blood sampling. Blood sampling was conducted by making a small cut (˜2 mm) in the tail using razor blade. 24-hour urine was collected using metabolic cages.
To evaluate the efficacy of OA-NO2 for treatment of diabetes, Zucker diabetic rats were used. These animals develop severe hyperglycemia and hyperinsulinemia, the two major parameters of type 2 diabetes.

As to `CCCCCCCC/C=C\CCCCCCCC(=O)O` [OA, Oleic acid, reference compound], in experiment [1] (Zucker obese rats, 2 weeks), the “reduction of proteinuria (urinary protein excretion)” value is “no significant effect”, the “plasma free fatty acid levels (non-esterified fatty acid)” value is reported as “lack of an effect”, the plasma cholesterol levels entry is “unaffected” and the “plasma HDL levels” value is “ineffective”. Also, the body weight gain result in experiment [1] (2 weeks) is “not different”.
Turning to nitrooleic acid [OA-NO2], the “hyperglycemia (plasma glucose)” value in experiment [2] (vs. Day 0 (FIG. 8A)) was “significantly attenuated”. The plasma insulin levels entry in experiment [2] (vs. Day 0 (FIG. 8B)) is reported as “tended to reduce”. For the same compound, the “plasma TBARS (index of systemic oxidative stress), increase in obese vs. lean rats” value in experiment [1] (Zucker obese rats, 2 weeks (FIG. 6)) is recorded as “significantly attenuated”. In addition, in experiment [1] (Zucker obese rats, 2 weeks), the “reduction of proteinuria (urinary protein excretion)” value amounted to 50%, the “plasma free fatty acid levels (non-esterified fatty acid)” value is “almost completely normalized”, the plasma cholesterol levels entry is “unaffected” and the “plasma HDL levels” value is given as “significantly increased”. The plasma triglyceride result in experiment [1] (Zucker obese rats, 2 weeks, fasted, vs. vehicle control (FIG. 3A)) is recorded as “significant triglyceride-lowering effect”. Further, the food intake entry in experiment [1] (Zucker obese rats, 2 weeks, vs. vehicle (FIG. 2)) is listed as “significantly reduced”. For the same compound, the body weight gain result in experiment [1] (2 weeks) is “less than that in the vehicle control”.
